In brackets after ≈: the same amount, converted by molar mass.
Tested on: lipid peroxidation in rat liver microsomes
Experiment: Anti-lipid peroxidation in rat liver microsomes (NADPH-induced, MDA-TBA absorbance at 535 nm)
Type: biochemical
Method: In the present, the rat microsomes is used to provide lipid source. The product of lipid peroxidation induced by NADPH with heat treatment (deconstructing microsome enzyme) is referred as MDA (malondialdehyde). The MDA is added with TBA (thiobarbituric acid) to form MDA-TBA compound with pink fluorescence. The MDA-TBA compound has absorption spectrum at 535 nm (or 532 nm) wavelength. The content of MDA can be manifested by the absorption degree of light at those wavelengths. Therefore, the degree of lipid peroxidation can also be known. If the content of MDA is decreased after addition of water soluble CM chitosan, the reduction of MDA can be attributed to the water soluble CM chitosan. It means that the water soluble CM chitosan has the ability of anti-lipid peroxidation. In the present invention, the anti-lipid peroxidation ability of the water soluble CM chitosan is compared with that of the Trolex (water soluble vitamin E).

effect on lipid peroxidation in rat liver microsomes (addition of the substance to rat liver microsomes): can suppress the lipid peroxidation
IC50 (the concentration required to suppress 50% lipid peroxidation) (rat liver microsomes, average over at least three data): 4.96 µg/mL (≈ 19.8 µM)
Compound: Cc1c(C)c2c(c(C)c1O)CCC(C)(C(=O)O)O2 (stereo not drawn) [Trolex]
MDA, the product of lipid peroxidation (as the added amount of the substance is increased): monotonically decreased
